The record followed here is patent publication US20080269131A1, “Inhibitors of Akt Activity” (SMITHKLINE BEECHAM CORPORATION, priority 2005, published 2008).

For series [1], the target named is T1, FL AKT2 (Homo sapiens, UniProt P31751).
T1 construct: 0.008 uM, FL AKT2 in the above full-length AKT enzyme assay
Briefly: Full-length AKT enzyme assay (substrate phosphorylation, SPA). Particulars: 4 uM ATP. In kind it is biochemical.

Series [2] relates to BT474 (human breast carcinoma). Briefly: Methylene Blue Growth Inhibition assay, BT474. Format: cell-based. Particulars: BT-474, 72 h, BT474, 3 days. The procedure:
(§1) Cellular Assays: Methylene Blue Growth Inhibition assay
(§2) Tumor cell lines used in this assay were BT474 (human breast carcinoma) and LNCaP (lymph node metastasis of prostate cancer). HFF (normal human foreskin fibroblast) was also included. All cell lines were cultured in RPMI 1640 media (Invitrogen Corporation 22400-071) containing 10% Fetal Bovine Serum (FBS) at 37° C. in a humidified 5% CO2 incubator. Cells were harvested using trypsin/EDTA, counted using a hemacytometer and plated in 96-well tissue culture plates (Costar 35-3075), 100 uL per well, at the following densities: BT474 15,000 cells/well, LNCaP 5,000 cells/well and HFF 5,000 cells/well. 10 mM stocks of compounds in DMSO were serially diluted in DMSO through nine 3-fold dilutions in 96-well plates (Costar Corning 3363), and stored at −80 C. The next day, compound dilutions were thawed and 4 uL of each transferred to 662 uL RPMI 1640+100 ug/mL gentamicin, resulting in twice the final required test concentrations. 100 uL of compounds diluted in RPMI 1640 were added to all cell lines. The final concentration of DMSO in all wells, including controls, was 0.3%. Cells were incubated at 37 C, 5% CO2 for 3 days. Medium was removed by aspiration. Cell biomass was estimated by staining cells with 80 uL methylene blue (Sigma M9140, 0.5% in 50:50 ethanol:water), and incubating at room temperature for 1 hour. Stain was aspirated and the plates rinsed by immersion in water, then air-dried. Stain was released from cells by adding 100 uL of solubilizing solution (1% N-lauroyl sarcosine, sodium salt, Sigma L5125, in PBS) and incubating at room temperature for at least 30 minutes. Plates were shaken and the optical density at 620 nm was measured on a microplate reader. Percent inhibition of cell growth was calculated relative to vehicle-treated control wells. Concentration of compound that inhibits 50% of cell growth (IC50) was interpolated using non-linear regression (Levenberg-Marquadt) and the equation, y=Vmax*(1−(x̂n/K̂n+x̂n)))+Y2. [Ref: Mager, M. E. (1972) Data Analysis in Biochemistry and Biophysics. New York: Academic Press]

Series [3] can be described thus: Solubility in 50 mM phosphate buffer at pH 7.4. Particulars: for solubility: 50 mM phosphate buffer, pH 7.4, aqueous buffer; for Solubility (statement in words): suitability for IV dosage forms, solubility in water. Format: physicochemical.
Series [4] has as its system HFF (normal human foreskin fibroblast). Briefly: Methylene Blue Growth Inhibition assay, HFF. In kind it is cell-based. Particulars: 72 h, HFF normal cells, 3 days. The procedure:
as §1, §2

The test system of series [5] is LNCaP (lymph node metastasis of prostate cancer). Briefly: Methylene Blue Growth Inhibition assay, LNCaP. In kind it is cell-based. Particulars: Homo sapiens, 72 h, 3 days. The protocol: as §1, §2
The target of series [6] is FL AKT1 (Homo sapiens, UniProt P31749). Briefly: Full-length AKT enzyme assay (substrate phosphorylation, SPA). In kind it is biochemical. Particulars: 4 uM ATP.

In brackets after ≈: the same amount, converted by molar mass. Structures can show the parent of a compound that is named as a salt. Where only a bound is given, the exact number is not on record here.

T1 sequence (P31751 whole entry): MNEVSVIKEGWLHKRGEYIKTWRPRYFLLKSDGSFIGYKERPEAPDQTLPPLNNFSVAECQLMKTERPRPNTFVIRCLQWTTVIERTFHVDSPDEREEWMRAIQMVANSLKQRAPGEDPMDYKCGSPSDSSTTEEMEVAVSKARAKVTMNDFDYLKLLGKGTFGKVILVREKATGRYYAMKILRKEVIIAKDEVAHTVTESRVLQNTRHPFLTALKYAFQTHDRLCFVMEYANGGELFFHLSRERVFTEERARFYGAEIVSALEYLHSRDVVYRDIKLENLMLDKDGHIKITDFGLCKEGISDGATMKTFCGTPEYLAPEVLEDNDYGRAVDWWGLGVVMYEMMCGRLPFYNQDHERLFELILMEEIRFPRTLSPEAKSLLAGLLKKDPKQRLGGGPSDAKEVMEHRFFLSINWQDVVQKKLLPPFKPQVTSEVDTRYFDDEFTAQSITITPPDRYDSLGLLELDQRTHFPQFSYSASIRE
Chain of FL AKT1 (P31749 whole entry): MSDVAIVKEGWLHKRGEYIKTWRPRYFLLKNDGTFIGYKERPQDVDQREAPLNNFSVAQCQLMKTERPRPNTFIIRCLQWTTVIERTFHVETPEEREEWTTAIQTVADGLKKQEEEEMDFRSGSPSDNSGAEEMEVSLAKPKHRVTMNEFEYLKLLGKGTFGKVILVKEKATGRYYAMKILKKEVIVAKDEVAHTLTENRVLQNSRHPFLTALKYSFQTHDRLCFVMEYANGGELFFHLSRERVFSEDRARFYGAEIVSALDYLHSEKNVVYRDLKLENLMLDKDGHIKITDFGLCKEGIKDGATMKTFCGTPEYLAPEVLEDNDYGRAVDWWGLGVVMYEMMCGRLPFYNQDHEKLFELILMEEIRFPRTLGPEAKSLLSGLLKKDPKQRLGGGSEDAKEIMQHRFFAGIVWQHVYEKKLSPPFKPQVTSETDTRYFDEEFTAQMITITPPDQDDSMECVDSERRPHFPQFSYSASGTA

As for `CCn1c(-c2nonc2N)nc2c(C#CC(C)(C)O)ncc(OCC[C@@H]3CCCN3)c21` [Example 1, 4-[2-(4-amino-1,2,5-oxadiazol-3-yl)-1-ethyl-7-({2-[(2S)-2-pyrrolidinyl]ethyl}oxy)-1H-imidazo[4,5-c]pyridin-4-yl]-2-methyl-3-butyn-2-ol], the half-maximal inhibitory concentration (IC50) turned out to be 0.008 µM in series [1]; 0.176 µM in series [2]; 12.6 µM in series [4]; 0.052 µM in series [5]; 0.002 µM in series [6]. The compound further gave a solubility in series [3] of 222 µM (≈ 94.5 µg/mL). Further, the “Solubility (statement in words)” value in series [3] is listed as “suitable for formulation into dosage forms for IV administration”.

For the compound `CCn1c(-c2nonc2N)nc2c(-c3ccccc3)ncc(OCC(O)CN3CCOCC3)c21` (stereo not shown) [Compound S, 1-{[2-(4-amino-1,2,5-oxadiazol-3-yl)-1-ethyl-4-phenyl-1H-imidazo[4,5-c]pyridin-7-yl]oxy}-3-(4-morpholinyl)-2-propanol trifluoroacetate], the concentration for half-maximal inhibition (IC50) in series [2] was greater than 30 µM; in series [4], greater than 30 µM; in series [5], 7.77 µM.

Consider `CCn1c(-c2nonc2N)nc2c(-c3ccccc3)ncc(OCCCN3CCOCC3)c21` [Compound R, 4-(1-ethyl-7-{[3-(4-morpholinyl)propyl]oxy}-4-phenyl-1H-imidazo[4,5-c]pyridin-2-yl)-1,2,5-oxadiazol-3-amine trifluoroacetate], for which the IC50 stood at 17.7 µM in series [2], 19.9 µM in series [4] and 1.42 µM in series [5].

As to `CCn1c(-c2nonc2N)nc2c(C#CC(C)(C)O)ncc(OCC3CCNCC3)c21.O=C(O)C(F)(F)F` [Compound Y, 4-{2-(4-amino-1,2,5-oxadiazol-3-yl)-1-ethyl-7-[(4-piperidinylmethyl)oxy]-1H-imidazo[4,5-c]pyridin-4-yl}-2-methyl-3-butyn-2-ol trifluoroacetate], the results for the IC50 in series [2], in series [4] and in series [5] were 2.59 µM, greater than 30 µM and 0.217 µM, respectively. The solubility in series [3] was 159 µM.

For `CCn1c(-c2nonc2N)nc2c(C#CC(C)(C)O)ncc(OCC[C@@H]3CCCCN3)c21` [Example 2, 4-[2-(4-amino-1,2,5-oxadiazol-3-yl)-1-ethyl-7-({2-[(2S)-2-Piperidinyl]ethyl}oxy)-1H-imidazo[4,5-c]pyridin-4-yl]-2-methyl-3-butyn-2-ol], the results for the half-maximal inhibitory concentration (IC50) in series [2], in series [4] and in series [5] were 0.255 µM, 14.2 µM and 0.065 µM, respectively. The same compound returned a solubility in series [3] of 200 µM (≈ 87.9 µg/mL). For the same compound, in series [3], the “Solubility (statement in words)” value is “suitable for formulation into dosage forms for IV administration”.

As for `CCn1c(-c2nonc2N)nc2c(-c3ccccc3)ncc(OCCN3CCOCC3)c21` [Compound T, 4-(1-ethyl-7-{[2-(4-morpholinyl)ethyl]oxy}-4-phenyl-1H-imidazo[4,5-c]pyridin-2-yl)-1,2,5-oxadiazol-3-amine trifluoroacetate], the figures for the half-maximal inhibitory concentration (IC50) in series [2], in series [4] and in series [5] were greater than 30 µM, 18.9 µM and greater than 30 µM, respectively.

Take `CCn1c(-c2nonc2N)nc2c(C#CC(C)(C)O)ncc(OCCC3CSCCN3)c21` (stereo not shown) [Example 3, 4-(2-(4-amino-1,2,5-oxadiazol-3-yl)-1-ethyl-7-{[2-(3-thiomorpholinyl)ethyl]oxy}-1H-imidazo[4,5-c]pyridin-4-yl)-2-methyl-3-butyn-2-ol]: the IC50 amounted to 0.026 µM in series [2], 3.59 µM in series [4] and 0.007 µM in series [5]. The solubility in series [3] was 7 µM (≈ 3.2 µg/mL). For the same compound, the “Solubility (statement in words)” value in series [3] is recorded as “suitable for formulation into dosage forms for IV administration”.

For `CCn1c(-c2nonc2N)nc2c(C#CC(C)(C)O)ncc(OCCCNCCc3ccc(OC)cc3)c21` [Compound Z, 4-(2-(4-amino-1,2,5-oxadiazol-3-yl)-1-ethyl-7-{[3-({2-[4-(methyloxy)phenyl]ethyl}amino)propyl]oxy}-1H-imidazo[4,5-c]pyridin-4-yl)-2-methyl-3-butyn-2-ol], the results for the IC50 in series [2], in series [4] and in series [5] were 0.266 µM, 5.51 µM and 0.048 µM, respectively. The same compound gave a solubility in series [3] of 37 µM (≈ 19.2 µg/mL).

As to `CCn1c(-c2nonc2N)nc2c(-c3ccccc3)ncc(OCC3CCCNC3)c21.O=C(O)C(F)(F)F` (stereo not shown) [Compound V, 4-{1-ethyl-4-phenyl-7-[(3-piperidinylmethyl)oxy]-1H-imidazo-[4,5-c]pyridin-2-yl}-1,2,5-oxadiazol-3-amine trifluoroacetate], the IC50 in series [2] stood at 1.87 µM; in series [4] it was 0.57 µM; in series [5], 1.64 µM. In series [3], this compound gave a solubility of 9 µM.

Take `CCn1c(-c2nonc2N)nc2c(C#CC(C)(C)O)ncc(OCCCCN)c21.O=C(O)C(F)(F)F` [Compound W, 4-[7-[(4-aminobutyl)oxy]-2-(4-amino-1,2,5-oxadiazol-3-yl)-1-ethyl-1H-imidazo[4,5-c]pyridin-4-yl}-2-methyl-3-butyn-2-ol trifluoroacetate]: the IC50 was found to be 8.21 µM in series [2], 22.1 µM in series [4] and 0.836 µM in series [5]. In series [3], this compound showed a solubility of 210 µM.

With `CCn1c(-c2nonc2N)nc2c(C#CC(C)(C)O)ncc(OCCCN)c21.O=C(O)C(F)(F)F` [Compound X, 4-{2-(4-amino-1,2,5-oxadiazol-3-yl)-7-[(3-aminopropyl)oxy]-1-ethyl-1H-imidazo[4,5-c]pyridin-4-yl}-2-methyl-3-butyn-2-ol trifluoroacetate], the IC50 worked out at 0.241 µM in series [2], 18.1 µM in series [4] and 0.258 µM in series [5]. The compound also yielded a solubility in series [3] of 173 µM.

`CCn1c(-c2nonc2N)nc2cncc(OC3CCNCC3)c21.O=C(O)C(F)(F)F` [Compound U, 4-[1-ethyl-7-(piperidin-4-yloxy)-1H-imidazo[4,5-c]pyridine-2-yl]-furazan-3-ylamine trifluoroacetate]: the IC50 in series [2] was 4.51 µM; in series [4], 6.47 µM. This compound also returned a solubility in series [3] of 200 µM.

Usually IC50 stands for the concentration needed to halve the response being measured. Low values mean inhibition by little substance, high ones a need for much substance. A word on the solubility: it is the dissolved amount per volume that the medium holds.
